The values below come from patent publication US11311514B2, “Pharmaceutical composition for preventing or treating pruritus, containing pyrazole derivative as active ingredient, and screening method for detecting same” (Seoul National University R&DB Foundation, priority 2017, dated 2022).

Data set [1] has as its target T1, MRGPR X1 (Homo sapiens, UniProt Q96LB2).
T1 construct: expressed in transfected cells
Briefly: MRGPR X1 screening assay (calcium dye fluorescence, chloroquine-stimulated). The format is cell-based. The following applies: Mrgpr X1 stable HEK 293T FRT cells; final 12 μM compound, 500 μM chloroquine, 0.2% DMSO. How it is done:
Human MRGPRX1 gene was sub-cloned in pcDNA5 FRT vector, which was transfected into HEK 293T FRT cells. The cells were cultured in a 37° C., 5% CO2 incubator for 48 hours.
To confirm the amount with which a single colony is well formed, the transfected cells were serially diluted and then transferred and distributed on 100 mm dish evenly. The medium was replaced with a fresh medium containing 50/g/ ? of hygromycin every 3-4 days. The cells were cultured until colonies were formed.
Once colonies were formed, only a single colony was transferred to a 24 well plate, followed by culture. Then, well grown cells were transferred to a 6 well plate, followed by culture. Antibiotic selection was performed. […]
First, MRGPR X1 stable cells were counted to make 8000 cells/well, followed by seeding in a Poly-D-Lysine coated plate 384 well black/clear plate. […]
Upon completion of the incubation, dye was discarded and Na-HEPES buffer was added thereto (25 ? /well) for washing, and then buffer was added thereto (25 ? /well) again. 25 ? of the primary candidate material was added to each well of the assay plate containing 25 ? of buffer, followed by reading the plate (final 12 μM compound, 500 μM chloroquine, 0.2% DMSO). […]
The experimental results were analyzed using a microplate reader (Flexstaion Π^384, Molecular Devices). […]

Data set [2] addresses T2, human histamine 1 receptor (hH1R) (Homo sapiens, UniProt P35367).
T2 construct: expressed in transfected cells; host or cells: HEK 293T cells, transient transfection
The experiment in a line: Human histamine 1 receptor antagonist assay (calcium dye fluorescence, histamine-stimulated). The format is cell-based. The conditions noted are these: HEK 293T cells transiently expressing hH1R; final 12 μM compound, 1 μM histamine, 0.2% DMSO; control 5 μM diphenhydramine; read-out: reduction of fluorescence, taking the inhibition by histamine plus diphenhydramine as 100%. On the procedure:
HEK 293T cells were transiently transfected with 2 μg of human histamine 1 receptor, followed by seeding at the density of 4000 cells/well. The cells were cultured in a 37° C., 5% CO2 incubator for 48 hours.
The subsequent procedure was performed using Biomex FX. After eliminating the medium, flo-3 AM dye dissolved in Na-HEPES buffer (5 mM KCl, 2 mM MgCl2, 140 mM NaCl, 10 mM NaOH-HEPES, pH7.2) at the concentration of 2.5 μM was added to the plate (25 ? /well) of the vehicle and experimental groups, and flo-3 AM dye dissolved in Na-HEPES buffer containing 5 uM diphenhydramine dissolved therein at the concentration of 2.5 μM was added to the plate (25 ? /well) of the control group, followed by culture in a 37° C., 5% CO2 incubator for 30 minutes.
During the culture, a compound plate was prepared. […]
Upon completion of the incubation, dye was discarded and Na-HEPES buffer was added thereto (25 ? /well) for washing, and then buffer was added thereto (25 ? /well) again (excluding control group wells). […] Finally, 25 ? of the compound was added to each well of the assay plate containing 25 ? of buffer, followed by reading the plate (final 12 μM compound, 1 μM histamine, 0.2% DMSO).
The experimental results were analyzed using a microplate reader (Flexstaion Π^384, Molecular Devices). Fluorescence assay was performed (Ex 488 nm, Em 535 nm) at the intervals of 3.2 seconds for 80 seconds. […]

Data set [3] can be described thus: Solubility in blood (selection of final compound). The class given is physicochemical. The conditions noted are these: result in words; no method given.
In data set [4] the test system is histamine mouse model. The experiment in a line: Pruritus evaluation in histamine mouse model. The format is in vivo, C57BL6 mice. The conditions noted are these: 30 mg/kg intraperitoneal, 30 min before histamine 500 μg s.c. dorsal; control group 118.38. On the procedure:
(§1) Seven week-old C57BL6 mice were placed in a new cage and adapted for 30 minutes before starting the experiment. As for the control group, 3% DMSO was dissolved in physiological saline (0.9% saline), which was intraperitoneally injected (50 ? /mouse). The animal model mice were intraperitoneally injected with the pharmaceutical composition of Example 1 (30 mg/kg) dissolved in physiological saline (0.9% saline) containing 3% DMSO (50 ? /mouse). The mice were also ? placed in the same cage above for 30 minutes.
(§2) Then, control and animal model mice were subcutaneously injected with 500 μg/50 ? of histamine on the dorsal side, and their behaviors were recorded with a digital video camera for 30 minutes. The number of scratches was recorded while playing back the recorded video file on a computer. A continuous action of scratching the skin from when the mouse lifted its hind foot off the floor and to when the mouse put it back on the floor was considered 1 scratch, and the number of scratches counted for 30 minutes was used as index for evaluating pruritus.

In data set [5] the test system is chloroquine mouse model. Briefly: Pruritus evaluation in chloroquine mouse model. The format is in vivo, C57BL6 mice. The conditions noted are these: 30 mg/kg intraperitoneal, 30 min before chloroquine 200 μg s.c. dorsal; control group 425.00. How it is done:
as §1
Then, control and animal model mice were subcutaneously injected with 200 μg/50 ? of chloroquine on the dorsal side, and their behaviors were recorded with a digital video camera for 30 minutes. The number of scratches was recorded while playing back the recorded video file on a computer. A continuous action of scratching the skin from when the mouse lifted its hind foot off the floor and to when the mouse put it back on the floor was considered 1 scratch, and the number of scratches counted for 30 minutes was used as index for evaluating pruritus.

The test system of data set [6] is dry skin mouse model. The experiment in a line: Pruritus evaluation in dry skin mouse model. The class given is in vivo, C57BL6 mice. The following applies: 30 mg/kg intraperitoneal on Day 5 of acetone/ether/water treatment; recorded 30 min later; control group 130.00. How it is done: First, a dry skin mouse model was constructed. A dry skin mouse model was prepared according to the instruction described Jpn J Pharmacol. 2002 March; 88(3):285-92. ENTOBAR® was mixed with physiological saline (0.9% saline) at the ratio of 1:1, which was intraperitoneally injected in 7-week-old C57BL6 mice (20 ? /mouse) to anesthetize the mice. Then, the hair of the right nape was shaved using a clipper. Ethyl ether and acetone were mixed at the ratio of 1:1. The mixture was soaked in absorbent cotton and the right nape was rubbed with the absorbent cotton for 1 minute. Then, absorbent cotton soaked with water was used to rub in the same way. This process was performed once in the morning and once in the afternoon for 5 days.
as §2, with “Next, pruritus evaluation in the dry skin mouse model was performed. In the afternoon on Day 5, the” for “Then,”, “group” for “and animal model”, “intraperitoneally” for “subcutaneously”, “3% DMSO dissolved in physiological saline (0.9% saline) (50” for “500 μg/50”, “/mouse). […] 30 minutes later,” for “of histamine on the dorsal side, and”, “digital” for “digital video”

In data set [7] the test system is mouse motor ability. Briefly: Rota rod motor condition test. The format is in vivo. The conditions noted are these: 30 mg/kg intraperitoneal, tested after 30 minutes; Rota rod speed 4 to 40. On the procedure: The test mouse was placed on the Rota rod device and then the speed was raised from 4 to 40 until the mouse fell. When the mouse fell, it was moved to a cage. The procedure was repeated three times a day for 3 consecutive days to adapt the mouse to the Rota rod device. After three days of adaptation, the mouse was moved to a cage where it was stabilized.
As for the control group, 3% DMSO was dissolved in physiological saline (0.9% saline), which was intraperitoneally injected (50 ? /mouse). The animal model mice were intraperitoneally injected with the pharmaceutical composition of Example 1 (30 mg/kg) dissolved in physiological saline (0.9% saline) containing 3% DMSO (50 ? /mouse). The mice were also placed in the same cage above for 30 minutes. The experiment above was repeated three times like the adaptation test above, and the average time of falling was calculated.
(In general: Falling from the rotarod earlier than controls is read as motor impairment.)

The subject of data set [8] is psoriatic mouse model (Aldara cream, 5% imiquimod). The experiment in a line: Pruritus evaluation in psoriatic mouse model. The format is in vivo, C57BL6 mice. The conditions noted are these: 30 mg/kg intraperitoneal on day 8 after 7 days Aldara cream; counted for 30 minutes; normal group 20.00, control group 71.00. How it is done: First, a psoriatic mouse model was constructed. A psoriatic mouse model was prepared according to the instruction described Pain. 2016 November; 2536-2543. Zoletil (15 mg/kg) was mixed with saline at the ratio of 1:1 and then mixed with Rompun (5 mg/kg), which was intraperitoneally injected in 7-week-old C57BL6 mice to anesthetize the mice. The mouse back was primarily depilated in the size of 2.5×2 cm using a clipper, and then secondly depilated using a straight blade. Vaseline cream was rubbed on the depilated area of the normal group for 7 days using a cotton swap. Aldara cream (62.5 mg, 5% imiquimod) was rubbed on the depilated area of the control group and the experimental group for 7 days using a cotton swap.
as §2, with “Next, pruritus evaluation in the psoriatic mouse model was performed. On day 8, the normal group and” for “Then,”, “group” for “and animal model”, “intraperitoneally” for “subcutaneously”, “3% DMSO dissolved in physiological saline (0.9% saline) (50” for “500 μg/50”, “/mouse). […] 30 minutes later,” for “of histamine on the dorsal side, and”, “digital” for “digital video”

T1 sequence (Q96LB2 whole entry): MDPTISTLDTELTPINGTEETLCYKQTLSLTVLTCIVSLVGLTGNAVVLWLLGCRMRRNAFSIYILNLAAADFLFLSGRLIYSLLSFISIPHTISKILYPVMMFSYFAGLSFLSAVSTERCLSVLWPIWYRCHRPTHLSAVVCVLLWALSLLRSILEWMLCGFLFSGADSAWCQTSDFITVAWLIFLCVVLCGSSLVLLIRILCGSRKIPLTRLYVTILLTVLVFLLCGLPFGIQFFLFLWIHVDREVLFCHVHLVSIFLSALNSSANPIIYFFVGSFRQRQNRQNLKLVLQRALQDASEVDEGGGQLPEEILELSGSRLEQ
T2 sequence (P35367 whole entry): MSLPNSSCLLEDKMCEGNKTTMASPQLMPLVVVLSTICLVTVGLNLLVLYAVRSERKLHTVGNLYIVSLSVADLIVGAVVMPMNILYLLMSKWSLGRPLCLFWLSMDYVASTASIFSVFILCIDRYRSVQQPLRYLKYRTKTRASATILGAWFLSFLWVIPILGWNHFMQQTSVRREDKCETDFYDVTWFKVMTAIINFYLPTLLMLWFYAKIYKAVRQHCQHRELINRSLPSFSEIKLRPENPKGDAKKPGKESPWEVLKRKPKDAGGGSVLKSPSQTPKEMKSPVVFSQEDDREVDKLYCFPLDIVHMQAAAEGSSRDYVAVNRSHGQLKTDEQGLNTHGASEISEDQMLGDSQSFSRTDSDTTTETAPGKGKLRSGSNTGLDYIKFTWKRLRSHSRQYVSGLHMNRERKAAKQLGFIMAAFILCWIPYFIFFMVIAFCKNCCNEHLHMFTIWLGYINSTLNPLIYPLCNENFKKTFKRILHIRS

`Cc1ccc(-n2nc(C)cc2C(=O)NCCCC(=O)O)cc1` [Example 1]: in data set [1], the “decline of fluorescence analysis result versus chloroquine alone” value is given as “approximately 54%”. Moreover, the inhibition (in general, how much of the control response was suppressed) at 12 µM in data set [2] is around 94%. For the same compound, in data set [3], the solubility in blood result is reported as “excellent solubility in blood”. The “average number of total scratches accumulated for 30 minutes” value stood at 39.90 times in data set [4], 150.50 times in data set [5] and 14.00 times in data set [6]. For the same compound, the “motor condition ability (average time of falling) versus control group” value in data set [7] is “no significant difference”. For the same compound, the “average number of total scratches” value in data set [8] is 1.00.
